Results on five compounds are retold here after patent US20260176320A1, “MODULATORS OF G-PROTEIN COUPLED RECEPTORS” (priority 2018, published 2026).

Holding throughout (assay type): cell-based
Experiment [1] has as its target T1, GLP-1R (Homo sapiens, UniProt P43220). Kind of experiment: HitHunter cAMP assay (GLP-1R). The note with it: cAMP; for Emax: read-out: (Emax) GLP-1R. The essentials:
(§1)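 Duplicate 22-point, 2-fold agonist titrations applied to receptor-expressing suspension cells in IBMX-containing HBSS; 30 min RT stimulation. Read: luminescent cAMP immunocompetition after O/N dark incubation.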

The next experiment addresses T2, GIP-R (Homo sapiens, UniProt P48546).
T2 sequence (P48546 22-466): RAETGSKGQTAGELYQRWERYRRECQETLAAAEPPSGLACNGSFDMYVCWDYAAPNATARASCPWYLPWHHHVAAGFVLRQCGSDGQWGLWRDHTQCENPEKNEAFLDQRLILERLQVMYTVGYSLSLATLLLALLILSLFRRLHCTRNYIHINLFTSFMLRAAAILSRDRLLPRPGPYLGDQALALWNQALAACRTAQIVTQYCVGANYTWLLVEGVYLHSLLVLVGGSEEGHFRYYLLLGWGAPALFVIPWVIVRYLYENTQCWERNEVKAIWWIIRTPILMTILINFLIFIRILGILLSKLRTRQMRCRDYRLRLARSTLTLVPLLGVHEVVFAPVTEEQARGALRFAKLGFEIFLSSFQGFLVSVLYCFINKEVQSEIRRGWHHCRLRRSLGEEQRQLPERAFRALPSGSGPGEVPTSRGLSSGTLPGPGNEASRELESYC
Description: HitHunter cAMP assay (GIP-R). Conditions: cAMP; for Emax: read-out: (Emax) GIP-R. In outline: as §1
In general terms: Cyclic AMP is a second messenger, typically raised through Gs and lowered through Gi signalling.

For experiment [2], the target named is T1, GLP-1R. Description: PathHunter β-arrestin assay. In outline: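 Following a 90 min agonist exposure at 37 °C in 0.2% BSA medium, β-arrestin coupling was detected by chemiluminescence after 3 h at room temperature.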

The structures appear in SMILES notation. Like-named read-outs stand apart in the source and are kept apart here. Square brackets hold non-standard residues; d marks the D form. Peptide text beside a SMILES is read from it. * marks the point of attachment. X1 = O=C(CSCC(=O)*)NCCN1C(=O)c2ccccc2C1=O; X4 = CC(C)(C(=O)NCCN1C(=O)CSC1=O)C(=O)*; Aib = CC(C)(N)C(=O)O

In general, Emax refers to the maximal effect, on the per cent scale that the assay sets.

T1 sequence (P43220 24-463): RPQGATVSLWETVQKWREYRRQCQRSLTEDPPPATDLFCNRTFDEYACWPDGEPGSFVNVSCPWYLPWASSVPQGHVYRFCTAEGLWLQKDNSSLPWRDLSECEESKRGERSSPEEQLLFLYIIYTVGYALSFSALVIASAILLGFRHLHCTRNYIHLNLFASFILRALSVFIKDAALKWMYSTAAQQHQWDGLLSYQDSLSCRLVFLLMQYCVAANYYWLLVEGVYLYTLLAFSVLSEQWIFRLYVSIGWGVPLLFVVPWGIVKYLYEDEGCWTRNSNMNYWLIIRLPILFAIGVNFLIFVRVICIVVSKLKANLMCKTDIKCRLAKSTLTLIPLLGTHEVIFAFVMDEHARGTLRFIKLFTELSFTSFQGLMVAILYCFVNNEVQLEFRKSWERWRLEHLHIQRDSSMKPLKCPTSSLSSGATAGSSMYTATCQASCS

Regarding `CC[C@H](C)[C@H](NC(=O)[C@H](CO)NC(=O)[C@H](Cc1ccc(O)cc1)NC(=O)[C@H](CC(=O)O)NC(=O)[C@H](CO)NC(=O)[C@@H](NC(=O)[C@H](Cc1ccccc1)NC(=O)[C@@H](NC(=O)CNC(=O)[C@H](CCC(=O)O)NC(=O)CSCC(=O)NCCN1C(=O)c2ccccc2C1=O)[C@@H](C)O)[C@@H](C)O)C(=O)N[C@@H](Cc1ccc(O)cc1)C(=O)N[C@@H](CC(C)C)C(=O)N[C@@H](CC(=O)O)C(=O)N[C@@H](CCCCN)C(=O)N[C@@H](CCC(N)=O)C(=O)N[C@@H](C)C(=O)N[C@@H](C)C(=O)NC(C)(C)C(=O)N[C@@H](CCC(=O)O)C(=O)N[C@@H](Cc1ccccc1)C(=O)N[C@H](C(=O)N[C@@H](CC(N)=O)C(=O)N[C@@H](Cc1c[nH]c2ccccc12)C(=O)N[C@@H](CC(C)C)C(=O)N[C@@H](CC(C)C)C(=O)N[C@@H](C)C(=O)NCC(=O)NCC(=O)N1CCC[C@H]1C(=O)N[C@@H](CO)C(=O)N[C@@H](CO)C(=O)NCC(=O)N[C@@H](C)C(=O)N1CCC[C@H]1C(=O)N1CCC[C@H]1C(=O)N1CCC[C@H]1C(=O)N[C@@H](CO)C(=O)N[C@@H](CCCCN)C(N)=O)[C@@H](C)CC` [Compound 144] (X1-EGTFTSDYSIYLDKQAA[Aib]EFINWLLAGGPSSGAPPPSK-NH2), the EC50 at GLP-1R [1] (EC50 GLP-1R/nM, Table 3) was 1 to 10 nM; on GLP-1R [1] (EC50 GLP-1R/nM, Table 3A) it was 1 to 10 nM; at GIP-R (EC50 GIP-R/nM, Table 3) it was less than 0.1 nM; at GIP-R (EC50 GIP-R/nM, Table 3A) it was less than 0.1 nM; at GLP-1R [2] it was more than 1000 nM. For the same compound, the Emax at GLP-1R [1] (Table 3) lay in the range of 93 to 119%; on GLP-1R [1] (Table 3A), 93 to 119%; at GIP-R (Table 3), 127 to 140%; on GIP-R (Table 3A), 127 to 140%.
Turning to `CC[C@H](C)[C@H](NC(=O)[C@H](CO)NC(=O)[C@H](Cc1ccc(O)cc1)NC(=O)[C@H](CC(=O)O)NC(=O)[C@H](CO)NC(=O)[C@@H](NC(=O)[C@H](Cc1ccccc1)NC(=O)[C@@H](NC(=O)CNC(=O)[C@H](CCC(=O)O)NC(=O)CSCC(=O)NCCN1C(=O)c2cc3ccccc3cc2C1=O)[C@@H](C)O)[C@@H](C)O)C(=O)N[C@@H](Cc1ccc(O)cc1)C(=O)N[C@@H](CC(C)C)C(=O)N[C@@H](CC(=O)O)C(=O)N[C@@H](CCCCN)C(=O)N[C@@H](CCC(N)=O)C(=O)N[C@@H](C)C(=O)N[C@@H](C)C(=O)NC(C)(C)C(=O)N[C@@H](CCC(=O)O)C(=O)N[C@@H](Cc1ccccc1)C(=O)N[C@H](C(=O)N[C@@H](CC(N)=O)C(=O)N[C@@H](Cc1c[nH]c2ccccc12)C(=O)N[C@@H](CC(C)C)C(=O)N[C@@H](CC(C)C)C(=O)N[C@@H](C)C(=O)NCC(=O)NCC(=O)N1CCC[C@H]1C(=O)N[C@@H](CO)C(=O)N[C@@H](CO)C(=O)NCC(=O)N[C@@H](C)C(=O)N1CCC[C@H]1C(=O)N1CCC[C@H]1C(=O)N1CCC[C@H]1C(=O)N[C@@H](CO)C(=O)N[C@@H](CCCCN)C(N)=O)C(C)C` [Compound 163], the EC50 was 10 to 100 nM at GLP-1R [1] (EC50 GLP-1R/nM, Table 3); 10 to 100 nM on GLP-1R [1] (EC50 GLP-1R/nM, Table 3A); less than 0.1 nM on GIP-R (EC50 GIP-R/nM, Table 3); less than 0.1 nM on GIP-R (EC50 GIP-R/nM, Table 3A); more than 1000 nM at GLP-1R [2]. Also, the Emax turned out to be 73% at GLP-1R [1] (Table 3), 73% at GLP-1R [1] (Table 3A), 106% at GIP-R (Table 3) and 106% at GIP-R (Table 3A).
For `CCCCCCCCCCCCCCCC(=O)N[C@@H](CCC(=O)NCCCC[C@H](NC(=O)[C@H](CO)NC(=O)[C@@H]1CCCN1C(=O)[C@@H]1CCCN1C(=O)[C@@H]1CCCN1C(=O)[C@H](C)NC(=O)CNC(=O)[C@H](CO)NC(=O)[C@H](CO)NC(=O)[C@@H]1CCCN1C(=O)CNC(=O)CNC(=O)[C@H](C)NC(=O)[C@H](CC(C)C)NC(=O)[C@H](CC(C)C)NC(=O)[C@H](Cc1c[nH]c2ccccc12)NC(=O)[C@H](CC(N)=O)NC(=O)[C@@H](NC(=O)[C@H](Cc1ccccc1)NC(=O)[C@H](CCC(=O)O)NC(=O)C(C)(C)NC(=O)[C@H](C)NC(=O)[C@H](C)NC(=O)[C@H](CCC(N)=O)NC(=O)[C@H](CCCCN)NC(=O)[C@H](CC(=O)O)NC(=O)[C@H](CC(C)C)NC(=O)[C@H](Cc1ccc(O)cc1)NC(=O)[C@@H](NC(=O)[C@H](CO)NC(=O)[C@H](Cc1ccc(O)cc1)NC(=O)[C@H](CC(=O)O)NC(=O)[C@H](CO)NC(=O)[C@@H](NC(=O)[C@H](Cc1ccccc1)NC(=O)[C@@H](NC(=O)CNC(=O)[C@H](CCC(=O)O)NC(=O)CSCC(=O)NCCN1C(=O)CC(C)(C)C1=O)[C@@H](C)O)[C@@H](C)O)[C@@H](C)CC)C(C)C)C(N)=O)C(=O)O` [Compound 104], the EC50 is 1 to 10 nM on GLP-1R [1] (EC50 GLP-1R/nM, Table 3); 1 to 10 nM on GLP-1R [1] (EC50 GLP-1R/nM, Table 3A); 1 to 10 nM on GIP-R (EC50 GIP-R/nM, Table 3); 1 to 10 nM on GIP-R (EC50 GIP-R/nM, Table 3A); more than 1000 nM at GLP-1R [2]. In addition, the Emax lay within 104 to 106% at GLP-1R [1] (Table 3), 104 to 106% at GLP-1R [1] (Table 3A), 43 to 47% on GIP-R (Table 3) and 43 to 47% at GIP-R (Table 3A).
`CC[C@H](C)[C@H](NC(=O)[C@H](CO)NC(=O)[C@H](Cc1ccc(O)cc1)NC(=O)[C@H](CC(=O)O)NC(=O)[C@H](CO)NC(=O)[C@@H](NC(=O)[C@H](Cc1ccccc1)NC(=O)[C@@H](NC(=O)CNC(=O)[C@H](CCC(=O)O)NC(=O)C(C)(C)C(=O)NCCN1C(=O)CSC1=O)[C@@H](C)O)[C@@H](C)O)C(=O)N[C@@H](Cc1ccc(O)cc1)C(=O)N[C@@H](CC(C)C)C(=O)N[C@@H](CC(=O)O)C(=O)N[C@@H](CCCCN)C(=O)N[C@@H](CCC(N)=O)C(=O)N[C@@H](C)C(=O)N[C@H](C(=O)NC(C)(C)C(=O)N[C@@H](CCC(=O)O)C(=O)N[C@@H](Cc1ccccc1)C(=O)N[C@H](C(=O)N[C@@H](CC(N)=O)C(=O)N[C@@H](Cc1c[nH]c2ccccc12)C(=O)N[C@@H](CC(C)C)C(=O)N[C@@H](CC(C)C)C(=O)N[C@@H](C)C(=O)NCC(=O)NCC(=O)N1CCC[C@H]1C(=O)N[C@@H](CO)C(=O)N[C@@H](CO)C(=O)NCC(=O)N[C@@H](C)C(=O)N1CCC[C@H]1C(=O)N1CCC[C@H]1C(=O)N1CCC[C@H]1C(=O)N[C@@H](CO)C(=O)N[C@@H](CCCCN)C(N)=O)[C@@H](C)CC)C(C)C` [Compound 132] (X4-EGTFTSDYSIYLDKQAV[Aib]EFINWLLAGGPSSGAPPPSK-NH2): the Emax on GLP-1R [1] (Table 3) fell in the range of 103 to 114%; on GLP-1R [1] (Table 3A), 103 to 114%; on GIP-R (Table 3), 61 to 64%; at GIP-R (Table 3A) it was 61 to 64%. Further, the EC50 was less than 0.1 nM at GLP-1R [1] (Table 3, read-out: EC50 GLP-1R/nM); less than 0.1 nM at GLP-1R [1] (Table 3A, read-out: EC50 GLP-1R/nM); 1 to 10 nM on GIP-R (Table 3, read-out: EC50 GIP-R/nM); 1 to 10 nM at GIP-R (Table 3A, read-out: EC50 GIP-R/nM); 10 to 1000 nM at GLP-1R [2] (PathHunter β-arrestin assay, read-out: β-arrestin activity EC50).
In the case of `CCCCCCCCCCCCCCCC(=O)N[C@@H](CCC(=O)NCCCC[C@H](NC(=O)[C@H](CO)NC(=O)[C@@H]1CCCN1C(=O)[C@@H]1CCCN1C(=O)[C@@H]1CCCN1C(=O)[C@H](C)NC(=O)CNC(=O)[C@H](CO)NC(=O)[C@H](CO)NC(=O)[C@@H]1CCCN1C(=O)CNC(=O)CNC(=O)[C@H](C)NC(=O)[C@H](CC(C)C)NC(=O)[C@H](CC(C)C)NC(=O)[C@H](Cc1c[nH]c2ccccc12)NC(=O)[C@H](CC(N)=O)NC(=O)[C@@H](NC(=O)[C@H](Cc1ccccc1)NC(=O)[C@H](CCC(=O)O)NC(=O)C(C)(C)NC(=O)[C@H](C)NC(=O)[C@H](C)NC(=O)[C@H](CCC(N)=O)NC(=O)[C@H](CCCCN)NC(=O)[C@H](CC(=O)O)NC(=O)[C@H](CC(C)C)NC(=O)[C@H](Cc1ccc(O)cc1)NC(=O)[C@@H](NC(=O)[C@H](CO)NC(=O)[C@H](Cc1ccc(O)cc1)NC(=O)[C@H](CC(=O)O)NC(=O)[C@H](CO)NC(=O)[C@@H](NC(=O)[C@H](Cc1ccccc1)NC(=O)[C@@H](NC(=O)CNC(=O)[C@H](CCC(=O)O)NC(=O)CSCC(=O)NCCN1C(=O)CC[C@H](C)C1=O)[C@@H](C)O)[C@@H](C)O)[C@@H](C)CC)C(C)C)C(N)=O)C(=O)O` [Compound 92], the EC50 was 1 to 10 nM at GLP-1R [1] (EC50 GLP-1R/nM, Table 3); 1 to 10 nM at GLP-1R [1] (EC50 GLP-1R/nM, Table 3A); 0.1 to 1 nM on GIP-R (EC50 GIP-R/nM, Table 3); 0.1 to 1 nM on GIP-R (EC50 GIP-R/nM, Table 3A); more than 1000 nM at GLP-1R [2]. For the same compound, the Emax on GLP-1R [1] (Table 3) was 94 to 104%; on GLP-1R [1] (Table 3A), 94 to 104%; on GIP-R (Table 3), 85 to 88%; on GIP-R (Table 3A), 85 to 88%.
